From article PMC2410218, “Identification of an HLA-A^*0201-restricted T-cell epitope derived from the prostate cancer-associated protein prostein” (British Journal of Cancer, 2004)

Assays:
LNCaP 1740 cells = assay: 51Cr release assay: peptide-activated CD8+ T cells against LNCaP 1740 cells; assay type: cell-based, human
Protocol: (§1) Briefly, LNCaP 1740 cells were cultured for 24 h in phenol red-free RPMI (Life Technologies) supplemented with 1% nonessential amino acids, 10 mM HEPES (Life Technologies) and 10% charcoal-stripped FCS (Biochrom). The cultivation was continued for additional 48 h in the androgen-depleted medium or in the presence of 1 nM of the synthetic androgen R1881 (Perkin-Elmer Life Sciences, Rodgau-Jügesheim, Germany). Subsequently, the cells were harvested and were used as target cells in a chromium release assay.
After washing 2 × 10^5 peptide-loaded DCs were cocultured with 2 × 10^6 immunomagnetically isolated CD8+ T cells well^−1 of a 24-well tissue culture plate (Greiner, Frickenhausen, Germany). […] After 7 days, cultures were washed and restimulated with peptide-loaded DCs at a responder to stimulator ratio of 5 : 1. After three rounds of weekly restimulation, the cultures were tested for the presence of prostein-specific CTLs.
The HLA-A2 restriction of CD8+ T-cell-mediated lysis was tested at an effector cell to target cell ratio of 30 : 1 in the presence of the anti-HLA-A2 monoclonal antibody derived from the MA2.1 hybridoma (American Type Culture Collection) at a final concentration of 1 μg ml^−1.

[1] = system: prostein mRNA expression in LNCaP 1740 cells; assay: Quantitative RT-PCR of prostein transcripts in LNCaP 1740 cells under androgen deprivation or stimulation; assay type: cell-based, human; conditions: 1 nM R1881 for 48 h; real-time PCR normalised to HPRT; means of two LC runs
Protocol: as §1, with “The androgen deprivation and stimulation experiments were performed as described previously ([Xu et al, 2001]). Briefly,” for “Briefly,”
The mRNA quantity of prostein was determined using a LightCycler (LC)-based real-time PCR protocol based on SYBR Green I detection (LC – FastStart DNA Master SYBR Green I; Roche Diagnostics, Mannheim, Germany) and the primer pair Prostein_N1 (5′-[…]-3′) and Prostein_C1 (5′-[…]-3′) to amplify a 240 bp cDNA fragment spanning two exons.
The mRNA copy number was adjusted to the RT–PCR product quantity of hypoxanthine phosphoribosyltransferase (HPRT) determined by LC technique using the primer pair HPRT_N1 (5′-[…]-3′) and HPRT_C1 (5′-[…]-3′) for the amplification of a 238 bp fragment. […]

[2] = system: T2 cells pulsed with the individual peptides; assay: 51Cr release assay: in vitro-stimulated CD8+ T cells against peptide-pulsed T2 cells; assay type: cell-based, human; conditions: CD8+ T cells stimulated four times with peptide-pulsed autologous DCs (20 μg ml^-1 of each peptide); T2 cells pulsed at 50 μg ml^-1; E:T 20:1; 4 h 51Cr release; triplicates
Protocol: Briefly, peripheral blood mononuclear cells were prepared from blood samples by Ficoll–Hypaque (Biochrom) density centrifugation. Monocytes were isolated by immunomagnetic cell separation with an anti-CD14 antibody coupled to paramagnetic microbeads (Miltenyi Biotech, Bergisch Gladbach, Germany) according to the manufacturer's instructions. Mature monocyte-derived dendritic cells (DCs) were generated as described previously ([Schmitz et al, 2000]).
After washing 2 × 10^5 peptide-loaded DCs were cocultured with 2 × 10^6 immunomagnetically isolated CD8+ T cells well^−1 of a 24-well tissue culture plate (Greiner, Frickenhausen, Germany). […] The T cells were cultured in 2 ml RPMI 1640 medium well^−1 supplemented with 10% human serum (CCpro, Neustadt, Germany), 100 U ml^−1 IL-2 and 10 ng ml^−1 IL-7 (both from Strathmann Biotech, Hanover, Germany). After 7 days, cultures were washed and restimulated with peptide-loaded DCs at a responder to stimulator ratio of 5 : 1. After three rounds of weekly restimulation, the cultures were tested for the presence of prostein-specific CTLs. […]

HLA-A^*0201 = biological target: T1, HLA-A^*0201 (Homo sapiens, UniProt P04439, D140Y/D185E/D98H/E176V/E277Q/G131W/G231S/I119V/I121R/I166T/I218V/L300P/L318F/N151K/N90K/P208A/P217A/Q86G/Q94H/R138H/R169H/T345S); assay: Fluorescence-based competition assay on B-cell lines LCL721 or JY; conditions: inhibition of binding of reporter peptide ILK(FITC)EPVHGV relative to positive control peptide YLLPAIVHI set as 100%; all peptides at 10 μM; LCL721 or JY cells, no acid strip; flow cytometry
T1 construct: endogenous in cells; host or cells: B-cell lines LCL721 or JY
Protocol: Binding studies of potential HLA-A^*0201 fitting peptides were carried out using the B-cell lines LCL721 or JY and a fluorescence-based competition assay, essentially as described by [van der Burg et al (1995)], but without performing acid strip. Reporter peptide was ILK(FITC)EPVHGV from HIV-1 reverse transcriptase and positive control was […] from RNA helicase p72. Fluorescence intensities were recorded by flow cytometry (FACSCALIBUR; Becton Dickinson, Heidelberg, Germany).

K562 cells = assay: 51Cr release assay: peptide-activated CD8+ T cells against K562 cells; assay type: cell-based, human; conditions: E:T 3:1, 10:1, 30:1; 4 h 51Cr release
Protocol: After washing 2 × 10^5 peptide-loaded DCs were cocultured with 2 × 10^6 immunomagnetically isolated CD8+ T cells well^−1 of a 24-well tissue culture plate (Greiner, Frickenhausen, Germany). […] The T cells were cultured in 2 ml RPMI 1640 medium well^−1 supplemented with 10% human serum (CCpro, Neustadt, Germany), 100 U ml^−1 IL-2 and 10 ng ml^−1 IL-7 (both from Strathmann Biotech, Hanover, Germany). After 7 days, cultures were washed and restimulated with peptide-loaded DCs at a responder to stimulator ratio of 5 : 1. After three rounds of weekly restimulation, the cultures were tested for the presence of prostein-specific CTLs.
Cytotoxic activity of the in vitro-stimulated CTLs was assayed against the HLA-A^*0201-positive mutant cell line T2 pulsed with the individual prostein-derived peptides or an irrelevant HLA-A^*0201-binding peptide from HIV-1 reverse transcriptase at a concentration of 50 μg ml^−1, against the PCa cell line LNCaP 1740, the melanoma cell line 93.04A12.1 and against K562 cells as targets in a 4 h standard ^51Cr release assay as described previously ([Kiessling et al, 2002]). The HLA-A2 restriction of CD8+ T-cell-mediated lysis was tested at an effector cell to target cell ratio of 30 : 1 in the presence of the anti-HLA-A2 monoclonal antibody derived from the MA2.1 hybridoma (American Type Culture Collection) at a final concentration of 1 μg ml^−1.

Compound	T-cell-mediated cytotoxicity against LNCaP 1740 cells deprived of androgen compared with cells grown in the presence of R1881 (LNCaP 1740 cells; 1 nM R1881 for 48 h after 24 h in charcoal-stripped FCS medium, E:T 30:1, all three donors)	Prostein mRNA expression in LNCaP 1740 under androgen deprivation compared with cells cultured in the presence of R1881 [1]	Induction of peptide-specific CTLs (specific lysis of peptide-loaded T2 cells) [2]	rBA (%) relative binding affinity (HLA-A^*0201)	Lysis of LNCaP 1740 cells by CTLs specifically recognising the peptide (LNCaP 1740 cells; HLA-A*0201-positive, prostein-expressing PCa cell line, E:T 3:1, 10:1, 30:1, 4 h 51Cr release, three donors)	Lysis of K562 cells by peptide-activated T cells (natural killer cell-like activity) (K562 cells)
C[C@]1(O)CC[C@H]2[C@@H]3CCC4=CC(=O)CCC4=C3C=C[C@@]21C [R1881, reference compound]	clearly reduced	downregulated but still detectable	–	–	–	–
CLAAGITYV [compound 2004]	–	–	induced specific CTLs in all three donors tested	94.0%	capable of lysing	failure
ALLPRLHQL [compound 1487]	–	–	–	84.1%	–	–
